System: THP-1 macrophages
Test: LPS-induced cytokine production by THP-1 macrophages
Format: cell-based, Human
Conditions: P. aeruginosa LPS 10 ng/mL, 4 h, 37 °C, 5% CO2
Method: Human non-small-cell lung adenocarcinoma A549 cells (ATCC CCL-185; LGC Standards, Milan, Italy) and human monocytic THP-1 cells (ATCC TIB-202; LGC Standards) were cultured in tissue culture flasks in Dulbecco’s modified essential medium (DMEM) (Euroclone, Milan, Italy) and RPMI 1640 medium (Euroclone), respectively. Both media were supplemented with 2 mM L-glutamine (Euroclone) and 10% heat-inactivated fetal bovine serum (FBS; Euroclone). Confluent monolayers were detached from the culture flask with 0.25% trypsin/1 mM EDTA solution (Euroclone), suspended in complete culture medium and seeded into flat-bottom 96-well plates at a final density of 1 × 10^4 cells/well (A549) and 2 × 10^4 cells/well (THP-1). A549 cells were cultured for 24 h at 37 °C, 5% CO2 in order to allow adhesion and formation of semi-confluent monolayers. THP-1 cells were cultured for 3 days (37 °C, 5% CO2) in the presence of 100 nM TPA (Sigma-Aldrich, St. Louis, MO, USA) to induce their differentiation into macrophage-like cells.
The anti-inflammatory potential of lin-SB056-1 and (lin-SB056-1)2-K was assessed by evaluating their ability to reduce LPS-induced production of pro-inflammatory cytokines by A549 cells and THP-1 macrophages. […] Following incubation, cell culture supernatants were collected, filter sterilized (0.22 µm) and employed for the quantification of cytokines and the assessment of cell viability.
Different pro-inflammatory cytokines (i.e., IL-1β, IL-6, IL-8 and TNF-α) were quantified in cell culture supernatants through a bead-based multiplex immunoassay (LEGENDplex multi-analyte flow assay kit; BioLegend, San Diego, CA, USA) following manufacturer’s instructions. […] Following consecutive washing steps, the beads were resuspended in the LEGENDplex wash buffer and the samples were analyzed by flow cytometry (BD Accuri C6 flow cytometer; BD Biosciences, Mountain View, CA, United States). Data were acquired with the BD Accuri C6 software (BD Biosciences) (300 events per analyte) and analyzed with the LEGENDplex software (BioLegend). […]

[1] = 9.6 μM peptide, vs LPS-stimulated peptide-untreated control, statistically significant, mean of three independent experiments

[KWKIRVRLSA]2-K [(lin-SB056-1)2-K, dendrimeric derivative of lin-SB056-1]
reduction in secretion of IL-1β [1]: 80%
reduction in secretion of IL-6 [1]: 60%
effect on TNF-α levels (three independent experiments): a trend in decreasing TNF-α levels, no statistical significance was reached

Source: PMC7557804, “The Anti-Microbial Peptide (Lin-SB056-1)2-K Reduces Pro-Inflammatory Cytokine Release through Interaction with Pseudomonas aeruginosa Lipopolysaccharide” (Antibiotics, 2020)
